We go through two compounds from article PMC8566451, “Lead optimization of novel quinolone chalcone compounds by a structure–activity relationship (SAR) study to increase efficacy and metabolic stability” (Scientific Reports, 2021).

In one data set the test system is MDA-MB231-TaxR. Description: Sulforhodamine B (SRB) assay. In kind it is cell-based. Particulars: Homo sapiens, MDA-MB231-TaxR paclitaxel-resistant breast cancer cells, 48 h. The source says:
We had initially determined that quinolone chalcones were promising anti-proliferative through a first round screening and identified CTR-17 and CTR-20 as favorable structures for anticancer activity. […] We carried out a comparative SAR study to determine if we could further optimize the quinolone chalcone to maximize efficacy. The Sulforhodamine B (SRB) assay was used to measure the anti-proliferative/cell killing activities of CTRs, for which several different cell lines were use: the cervical cancer HeLa, the breast cancer cell lines MDA-MB231, MDA-MB468, MDA-MB231TaxR (an induced paclitaxel-resistant sub-cell line of the MDA-MB231[9]) and MCF7. In addition, a subset was tested against the melanoma cell lines MZ-MEL-3.1, Mel-SOE, UKRV-Mel-38, UKRV-Mel-17 and MDA-MB-435 (Table 1, Supplemental Table S1).
The SRB assay was used to assess drug-induced cytotoxicity and cell proliferation as previously described[2],[33],[34] with a few modifications. Briefly, cells were plated 10,000 to 25,000 cells/cm^2 in 96-well plates (100 µl medium) and allowed to adhere overnight. The cell counts were different for each cell line to ensure optimal cell growth for the duration of the assay. Eight different concentrations of compound solutions using 2–4 times serial dilutions (100 µl). Cells were then incubated for an additional 48 h and then fixed with 100 µl ice-cold 10% (w/v) trichloroacetic acid (TCA) (without removing the cell medium, final concentration, 3.3% of TCA) and stained with 0.4% SRB (w/v) in 1% acetic acid (v/v). The relative growth rate (%) was calculated for each of the compound concentrations according to the following formula: 100 * (T − T0)/(C − T0), in which T is the optical density (OD) after exposure to a certain concentration of the compound after 48 h, T0 is the OD at the start of drug exposure (time zero) and C is the control growth. The GI50 for each compound was obtained from a non-linear sigmoidal dose–response (variable slope) curve fitted by GraphPad Prism v.4.03 software.

Data set [1] has as its system peripheral blood mononuclear cells (PBMC). Description: PBMC culture and MTS assay. It is filed as cell-based, human. Particulars: for GI50: Homo sapiens, 48 h; for Selectivity Index (PBMC): PBMCs versus average GI50 of cancer cells. The procedure:
Peripheral blood mononuclear cells from healthy donors were isolated by density gradient centrifugation using Ficoll solution as described below. Blood samples used were supplied by the Canadian Blood Services under the Institutional Research Ethics Board Project # 18–099, and no human participants or volunteers were involved directly in the current study.
Whole blood was gently layered over an equal volume of Ficoll and centrifuged at 800 × g for 20 min with no brake. The Buffy coat was carefully collected by pipetting in 50 mL tubes and topped off with PBS. The cell isolates were subsequently mixed by inversion and centrifuged at 300 × g for 12 min. The supernatant was then carefully aspirated without disturbing the cell pellet, and the PBMCs were resuspended in ammonium-chloride-potassium (ACK) lysis buffer. The tubes were left to stand for 15 min to allow for red blood cell lysis. PBS was again added to the cells and centrifuged at 300 × g for 12 min and pelleted PBMCs were resuspended in RPMI + 10% heat inactivated FBS. Following counting, cells were centrifuged again and cryopreserved with a freezing medium composed of 40% FBS, 10% DMSO and 50% culture medium. Cryovials were placed in a − 80 °C for 24 h prior to transfer to liquid nitrogen for long-term storage.
PBMC cryovials were transferred from liquid nitrogen and placed in a 37 °C water bath until almost completely thawed. 1 mL of pre-warmed medium was added drop-wise and the entire contents of the cryovial was transferred to a 15-mL tube. Pre-warmed medium was then added to bring the volume up to 10 mL. The PBMCs were centrifuged at 300 × g for 10 min, and the cell pellet was gently resuspended with 5 mL of warm medium. The tubes were subsequently placed in a 37 °C incubator in a 5° angled rack for 4 h. An additional 5 mL warm medium containing of 30 units/mL benzonase nuclease was then injected into the cell solution and left to stand at room temperature for 5 min before centrifugation for 10 min at 300 × g. The pelleted cells were resuspended in the medium with 100 units/mL of IL-2 (Cedarlane Laboratories, Burlington, ON, Canada) and a small aliquot was used for cell counting and viability staining. The cells were plated in 96-well plates at a density of 80,000–120,000 cellules/well/100 µL.
Following a 48-h incubation period, eight different concentrations of compound solutions using two to four-fold serial dilutions were added to the cells (100 µl). Cells were incubated for an additional 48 h and cytotoxicity was established using the CellTiter 96 cytotoxicity assay (Promega). 40 μl of the tetrazolium dye was added to each well of the plate and then incubated for 2 h. OD was then read directly at 490 nm using the automated Biotek Synergy H4 plate reader. The GI50 was calculated similarly to the SRB.

Data set [2] in a line: Toxicity in mice (body weight, AST/ALT). Particulars: for liver toxicity (AST and ALT): C57BL/6 mice, up to maximum doses 10 mg (CTR-21) and 50 mg (CTR-32); for toxicity in mice: mice treated at 10 mg/kg. It is filed as in vivo, mouse. The procedure:
All animal experiments, including animal handling, care, treatments and endpoint determination were reviewed and approved by the Animal Care Committee (ACC) at Laurentian University (Sudbury, Ontario, Canada). We hereby confirm that all animal-based experiments were performed in compliance with relevant guidelines and regulations, including the ARRIVE guidelines (http://www.nc3rs.org.uk/page.asp?id=1357). Weight measurement and AST/ALT experiments were carried out as before.
Neither CTR-21 nor CTR-32 treatment notabl y affect ed the bod y weight of mice treated with CTR-21 or CTR-32. Mice ( C57B L/6) were inject ed (i.p.) ev er y three da ys with the indicated doses of CTR -21 or CTR-32, along with vehicle control. […]
doses used in this experiment (i.e., 10 mg and 50 mg for CTR-21 and CTR-32, respectivel y).
There is no si gnificant changes of AST and ALT between different groups , including vehicl e

Where [3] appears, read: PBMC #1, MTS, read-out: GI50 PBMC #1.
Where [4] appears, read: PBMC #2, MTS, read-out: GI50 PBMC #2.

Like-named read-outs stand apart in the source and are kept apart here.

On to `COc1ccccc1C(=O)/C=C/c1cc2cccc(OC)c2[nH]c1=O` [CTR-21, (E)-8-methoxy-3-(3-(2-methoxyphenyl)-3-oxoprop-1-enyl) quinolin-2(1H)-one], for which the GI50 in the data set on MDA-MB231-TaxR turned out to be 32 ± 8 nM; in data set [1] (setting [3]), 1860 ± 336 nM; in data set [1] (setting [4]), 1630 ± 317 nM. Moreover, in data set [1], the “Selectivity Index (PBMC)” value was determined as 106. Besides, the “liver toxicity (AST and ALT)” value in data set [2] is “do not show notable liver”. Moreover, the ALT in data set [2] (female C57BL/6 mice, 1 mg/kg) was found to be 118.03±25.82 U/L; in data set [2] (female C57BL/6 mice, 5 mg/kg), 142.17±45.44 U/L; in data set [2] (female C57BL/6 mice, 10 mg/kg) it was 142.98±45.61 U/L; in data set [2] (male C57BL/6 mice, 1 mg/kg) it was 128.49±60.78 U/L; in data set [2] (male C57BL/6 mice, 5 mg/kg) it was 142.71±58.30 U/L; in data set [2] (male C57BL/6 mice, 10 mg/kg), 123.93±49.96 U/L. Further, the AST in data set [2] (female C57BL/6 mice, 1 mg/kg) is reported as 249.47±77.12 U/L; in data set [2] (female C57BL/6 mice, 5 mg/kg), 265.03±97.76 U/L; in data set [2] (female C57BL/6 mice, 10 mg/kg), 319.215±101.93 U/L; in data set [2] (male C57BL/6 mice, 1 mg/kg) it was 264.42±91.94 U/L; in data set [2] (male C57BL/6 mice, 5 mg/kg), 228.82±42.23 U/L; in data set [2] (male C57BL/6 mice, 10 mg/kg) it was 242.62±102.65 U/L. The AST/ALT in data set [2] (female C57BL/6 mice, 1 mg/kg) came to 2.12; in data set [2] (female C57BL/6 mice, 5 mg/kg) it was 1.86; in data set [2] (female C57BL/6 mice, 10 mg/kg), 2.23; in data set [2] (male C57BL/6 mice, 1 mg/kg), 2.06; in data set [2] (male C57BL/6 mice, 5 mg/kg) it was 1.60; in data set [2] (male C57BL/6 mice, 10 mg/kg), 1.96. Besides, the toxicity in mice entry in data set [2] is recorded as “no ill-effects observed”.
`CCOc1ccccc1C(=O)/C=C/c1cc2ccccc2[nH]c1=O` [CTR-32, (E)-3-(3-(2-ethoxyphenyl)-3-oxoprop-1-enyl)quinolin-2(1H)-one]: the concentration for 50% growth inhibition (GI50) in the data set with MDA-MB231-TaxR was determined as 22 ± 4 nM; in data set [1] (setting [3]) it was 1880 ± 147 nM; in data set [1] (setting [4]), 787 ± 396 nM. The “Selectivity Index (PBMC)” value in data set [1] is reported as 67. In data set [2], the “liver toxicity (AST and ALT)” value is “do not show notable liver”. For the same compound, the ALT in data set [2] (female C57BL/6 mice, 30 mg/kg) amounted to 103.54±61.53 U/L; in data set [2] (female C57BL/6 mice, 50 mg/kg), 87.81±25.42 U/L; in data set [2] (male C57BL/6 mice, 30 mg/kg) it was 110.30±44.56 U/L; in data set [2] (male C57BL/6 mice, 50 mg/kg), 96.57±45.23 U/L. For the same compound, the AST in data set [2] (female C57BL/6 mice, 30 mg/kg) was 253.74±117.87 U/L; in data set [2] (female C57BL/6 mice, 50 mg/kg) it was 268.16±136.88 U/L; in data set [2] (male C57BL/6 mice, 30 mg/kg) it was 288.49±184.97 U/L; in data set [2] (male C57BL/6 mice, 50 mg/kg), 217.49±39.91 U/L. For the same compound, the AST/ALT in data set [2] (female C57BL/6 mice, 30 mg/kg) is 2.45; in data set [2] (female C57BL/6 mice, 50 mg/kg), 3.05; in data set [2] (male C57BL/6 mice, 30 mg/kg), 2.62; in data set [2] (male C57BL/6 mice, 50 mg/kg) it was 2.25. For the same compound, in data set [2], the toxicity in mice entry was “no ill-effects observed”.
